Measured values published in patent US12677825B2, “Composition for protecting islet transplantation” (LG CHEM, LTD., priority 2020, dated 2026).

Key:
[1] = system: islets from hIAPP+/− FVB/N mice; test: Intracellular free radical detection and lipid peroxidation after islet isolation; format: cell-based, mouse; settings: 20 μM Compound 1 during islet isolation, vs control islets
Protocol: Mouse islets were isolated from 10- to 12-week-old hIAPP^+/− and C57BL/6 mice as described previously. Briefly, 0.8 mg/mL of collagenase P (Roche, Indianapolis, IN, USA) in Hank's buffered saline solution (HBSS, Sigma-Aldrich, St. Louis, MO, USA) with or without 20 μM Compound 1 were infused into the common bile duct for mouse pancreas digestion. Islets were purified from the digested pancreas using a Ficoll (Biochrom, Berlin, Germany) gradient and washed several times with 1 xHBSS. Isolated islets were cultured while free-floating in 10 mL of RPMI 1640 (Gibco, Grand Island, NY, USA). The medium was supplemented with 10% heat-inactivated FBS (fetal bovine serum) at 37° C. and 5% CO2 incubation prior to the ex vivo and in vivo studies.
The oxidative stress levels in hIAPP^+/− mouse islets were determined right after islet isolation and after ex vivo culture of isolated islets. The oxidative stress of the islets was quantified using a fluorescence-based intracellular ROS detection method and by estimating the concentration of malondialdehyde (MDA), a by-product of lipid peroxidation. The formation of total ROS, superoxide ion and nitric oxide was determined using a reactive oxygen species detection kit (ENZ-51011, Enzo Life Sciences, Farmingdale, New York, USA). The ROS content was measured by levels of DHR123 fluorescence. The kit was applied according to the manufacturer's protocol.

[2] = system: STZ-induced diabetic hIAPP+/− FVB/N mice; test: Marginal mass islet transplantation after serum-deprived culture with or without Compound 1; format: in vivo, mouse
Protocol: A marginal mass renal subcapsular islet transplantation model was used to assess the in vivo islet function of hIAPP^+/− mice. To induce diabetes, 180 mg/kg of streptozotocin (STZ, Sigma-Aldrich) was administered to 8- to 10-week-old FVB/N mice. Mice were considered to have diabetes when two consecutive blood glucose level readings were higher than 300 mg/dL. Equal amounts (400 IEQ of islets per recipient) of islets isolated from hIAPP^+/− mice were allocated to the following two groups: culture medium supplemented with 0.625% BSA (BSA group) and 0.625% BSA plus Compound 1 (BSA+Compound 1 group) to evaluate the combined effect of Compound 1 on islet mass and function during ex vivo culture. After culture for 72 hours, islets were transplanted into the renal subscapular space of diabetic hIAPP^+/− mice. The IE number was calculated using the Ricordi algorithm by classifying islets according to their diameter. After islet transplantation, non-fasting blood glucose levels were measured three times a week for the first 2 weeks and twice a week for the last 2 weeks.
At 4 weeks after transplantation, the transplantation site on the kidney of mouse were removed and embedded in paraffin. Immunohistochemical staining is briefly explained in the following. After deparaffinization, 4-μm tissue sections were stained with the polyclonal guinea pig anti-insulin antibody (1:1000, A0546, DAKO, Denmark), glucacon (1:500, ab92517, abcam, United Kingdom) and amyloid (1:2500, #44-344, Invitrogen). Stained slides were observed using an Olympus BX40 light microscope (Olympus, Japan) with […] numeric aperture and ×40/0.75 numeric aperture objectives. Photographic images were collected with a digital camera (Olympus DP50) and analyzed using the Image-Pro Plus 5.1 software.
For quantification of the DAB-labeled β-cells, all slides were imaged at 10× on a Vectra 3.0 automated quantitative pathology imaging system and analyzed using inForm software (all from Perkin-Elmer, Waltham, MA, USA). The transplanted renal tissue sections were scanned for image acquisition and then to set the transplanted tissue segmentation, a number of representative regions of transplanted islet cells and regions to be excluded from the analysis such as renal tissues were examined by learn-by-example interface. For the β-cell segmentation, a spectral library was used to identify the hematoxylin-stained nuclei and the DAB-stained cytoplasm (β-cells) within the transplanted tissue. With these training sets, the algorithm for identifying only the DAB-stained cells in the transplanted tissue was verified. All the captured 10× images were analyzed, and the DAB-stained transplanted β-cells were counted.

[3] = system: islets from hIAPP+/− mouse; test: GSIS assay after serum-deprived culture; format: cell-based; settings: Compound 1 added to medium during serum-deprived culture; FIG. 6E
Protocol: Purified hIAPP^+/− FVB/N and C57BL/6J mouse were suspended in RPMI 1640 (Gibco, Grand Island, NY, USA) containing 100 IU/mL penicillin and 100 μg/mL streptomycin, and cultured at 37° C. in a fully humidified 5% CO2 atmosphere. Purified NHP islets were suspended in CMRL 1066 medium (Coming Life Sciences, Tewksbury, MA; catalog number 99-663-CV) containing 100 IU/mL penicillin and 100 μg/mL streptomycin, and cultured at 37° C. in a fully humidified 5% CO2 atmosphere. […]
After hand-picking and washing with PBS, islets were seeded on 12-mm diameter insert wells (Merck Millipore, Billerica, MA, USA) with 10 islets per well, and preincubated with 60 mg/dL glucose in Kreb's-Ringer buffer (KRB: 129 mM NaCl, 4.8 mM KCl, 2.5 mM CaCl2, 1.2 mM KH2PO4, 5 mM NaHCO3, 10 mM HEPES, and 0.2% BSA) for 90 mM at 37° C. […] Insulin release into the supernatant by the mouse islets was measured by ELISA (ALPCO, Salem, NH, USA) and a multiplex kit (Merck Millipore), respectively.

O=S1(=O)CCN(Cc2cc(NC3CCOCC3)c3[nH]c(-c4ccccc4)cc3c2)CC1 [Compound 1]
ROS contents in islets ([1]; FIG. 1C): markedly decreased
oxidative stress levels in islets ([1]; FIG. 1D): markedly decreased
insulin positive area in the grafted tissue ([2]; islets cultured 72 hours with Compound 1, vs control group, FIG. 7F): greater
posttransplant glucose levels ([2]; islets cultured 72 hours with Compound 1, vs control, FIG. 7B): significantly better
diabetes reversal rate ([2]; islets cultured 72 hours with Compound 1, vs control, FIG. 7C): significantly better
glucose levels during IPGTT ([2]; islets cultured 72 hours with Compound 1, vs control, FIG. 7D): significantly better
AUC of glucose during IPGTT ([2]; islets cultured 72 hours with Compound 1, vs control, FIG. 7E): significantly better
stimulation index [3]: significantly increased
